pIC50: −log10 of the molar value. Activity calls are given as the source filed them. The rule behind the calls is not given here.
Assays:
Assay type in all cases: functional, cell-based
HL-60 [1] = experiment: Anticancer activity against Homo sapiens (human) HL60 cells assessed as abnormal morphological changes after 48 hr by inverted phase contrast microscopic analysis
HCT-116 [2] = experiment: Anticancer activity against Homo sapiens (human) HCT116 cells assessed as inhibition of cell proliferation after 72 hr by MTT assay; conditions: for pIC50: HCT-116, 72 h
HL-60 [3] = experiment: Anticancer activity against Homo sapiens (human) HL60 cells assessed as inhibition of cell proliferation after 72 hr by MTT assay; conditions: for pIC50: HL-60, 72 h
HCT-116 [4] = experiment: Anticancer activity against Homo sapiens (human) HCT116 cells assessed as cells with abnormal large number of vacuoles in cytoplasm after 48 hr by inverted phase contrast microscopic analysis
HCT-116 [5] = experiment: Anticancer activity against Homo sapiens (human) HCT116 cells assessed as reduction in cell number after 48 hr by inverted phase contrast microscopic analysis
HCT-116 [6] = experiment: Anticancer activity against Homo sapiens (human) HCT116 cells assessed as abnormal morphological changes after 48 hr by inverted phase contrast microscopic analysis

SMILES | Activity (HL-60 [1]) | inhibition (HCT-116 [2]) | pIC50 (HCT-116 [2]) | inhibition (HL-60 [3]) | pIC50 (HL-60 [3]) | Activity (HCT-116 [4]) | Activity (HCT-116 [5]) | Activity (HCT-116 [6])
CCn1c[n+](Cc2ccc(C[n+]3cn(CC)c4ccccc43)cc2)c2ccccc21 | Active | Dose-dependent effect | 6.52 | Dose-dependent effect | 4.40 | Active | – | –
CCCCn1c[n+](Cc2ccc(C[n+]3cn(CCCC)c4ccccc43)cc2)c2ccccc21 | Active | Dose-dependent effect | 4.73 | Dose-dependent effect | 4.25 | – | Active | –
CCCn1c[n+](Cc2ccc(C[n+]3cn(CCC)c4ccccc43)cc2)c2ccccc21 | Active | Dose-dependent effect | 5.85 | Dose-dependent effect | 4.31 | – | – | Active
O=c1[nH]cc(F)c(=O)[nH]1 [FLUOROURACIL] | – | Dose-dependent effect | – | Dose-dependent effect | 5.27 | – | – | –
